Test results taken from patent US20240115554A1, “METHODS FOR TREATING OBSTRUCTIVE HYPERTROPHIC CARDIOMYOPATHY” (Cytokinetics, Incorporated, priority 2022, published 2024).
Entries after “also recorded” stand apart in the source; their conditions may differ.

Columns and labels:
cardiac myosin = cardiac myosin (Homo sapiens, UniProt P12883); assay: Preclinical models: myocardial contractility; settings: preclinically in vitro and in vivo
From the text: This mechanism of action may be therapeutically effective in conditions characterized by excessive hypercontractility, such as HCM (e.g., obstructive HCM, also referred to as oHCM).

[1] = Phase 1 plasma aficamten pharmacokinetics (SAD, MAD, CYP2D6-PM, food-effect cohorts); type: in vivo, human; settings: for CL/F: mean ± SD
Protocol: CYP2D6 poor metabolizer cohort.
CYP2D6 genotypes were determined at screening for all study participants; those identified as CYP2D6-PMs were excluded from the SAD and MAD cohorts but were invited to participate in the CYP2D6-PM cohort. The first individual in the CYP2D6-PM cohort was dosed after the SAD 25-mg cohort (FIG. 2). […] Nine participants were randomized (7:2) with a sentinel dosing group consisting of the first 2 participants treated.
Food-effect cohort. […] Participants were randomized in a 1:1 ratio to 1 of 2 sequences: fasted/fed or fed/fasted.
Pharmacokinetic analyses. For all study groups, blood samples for PK assessment were obtained pre-dose, up to 12 times daily on day 1, and then at regular intervals throughout the study. Blood samples were collected according to the following schedule: SAD Cohorts: Day 1: pre-dose and 0.25, 0.5, 1, 1.5, 2, 2.5, 3, 4, 6, 8, 12, 16, 24, 36, 48, 72, 96, and 216 h post dose. […] CYPD6-PM Cohort: Day 1: pre-dose and 0.25, 0.5, 1, 1.5, 2, 2.5, 3, 4, 6, 8, 12, 16, 24, 36, 48, 72, 96, 216, 312, and 552 h post dose. Food-Effect Cohort: Day 1: pre-dose and 0.25, 0.5, 1, 1.5, 2, 2.5, 3, 4, 6, 8, 12, 16, 24, 36, 48, 72, 96, 144, and 216 h post dose. Standard non-compartmental methods were used to calculate PK parameters using Phoenix® WinNonlin® Version 7.0; actual sample collection times were utilized.
For the MAD cohort, the parameters were AUC24 and Cmax on day 1, plus AUC to the […] (AUCtau) and Cmax on day 14 or 17. The statistical linear relationship between the ln-transformed PK parameters and the ln-transformed dose was verified by including the quadratic (ln Dose)^2 and cubic (ln Dose)^3 effects. […] The dose-proportionality analysis was performed using SAS® PROC MIXED.
An analysis of variance (ANOVA) model was conducted separately for each dose level; day was included as the fixed effect. Helmert contrasts were developed such that each time-point was compared with the mean of the subsequent time-points.

Chain of cardiac myosin (P12883 whole entry): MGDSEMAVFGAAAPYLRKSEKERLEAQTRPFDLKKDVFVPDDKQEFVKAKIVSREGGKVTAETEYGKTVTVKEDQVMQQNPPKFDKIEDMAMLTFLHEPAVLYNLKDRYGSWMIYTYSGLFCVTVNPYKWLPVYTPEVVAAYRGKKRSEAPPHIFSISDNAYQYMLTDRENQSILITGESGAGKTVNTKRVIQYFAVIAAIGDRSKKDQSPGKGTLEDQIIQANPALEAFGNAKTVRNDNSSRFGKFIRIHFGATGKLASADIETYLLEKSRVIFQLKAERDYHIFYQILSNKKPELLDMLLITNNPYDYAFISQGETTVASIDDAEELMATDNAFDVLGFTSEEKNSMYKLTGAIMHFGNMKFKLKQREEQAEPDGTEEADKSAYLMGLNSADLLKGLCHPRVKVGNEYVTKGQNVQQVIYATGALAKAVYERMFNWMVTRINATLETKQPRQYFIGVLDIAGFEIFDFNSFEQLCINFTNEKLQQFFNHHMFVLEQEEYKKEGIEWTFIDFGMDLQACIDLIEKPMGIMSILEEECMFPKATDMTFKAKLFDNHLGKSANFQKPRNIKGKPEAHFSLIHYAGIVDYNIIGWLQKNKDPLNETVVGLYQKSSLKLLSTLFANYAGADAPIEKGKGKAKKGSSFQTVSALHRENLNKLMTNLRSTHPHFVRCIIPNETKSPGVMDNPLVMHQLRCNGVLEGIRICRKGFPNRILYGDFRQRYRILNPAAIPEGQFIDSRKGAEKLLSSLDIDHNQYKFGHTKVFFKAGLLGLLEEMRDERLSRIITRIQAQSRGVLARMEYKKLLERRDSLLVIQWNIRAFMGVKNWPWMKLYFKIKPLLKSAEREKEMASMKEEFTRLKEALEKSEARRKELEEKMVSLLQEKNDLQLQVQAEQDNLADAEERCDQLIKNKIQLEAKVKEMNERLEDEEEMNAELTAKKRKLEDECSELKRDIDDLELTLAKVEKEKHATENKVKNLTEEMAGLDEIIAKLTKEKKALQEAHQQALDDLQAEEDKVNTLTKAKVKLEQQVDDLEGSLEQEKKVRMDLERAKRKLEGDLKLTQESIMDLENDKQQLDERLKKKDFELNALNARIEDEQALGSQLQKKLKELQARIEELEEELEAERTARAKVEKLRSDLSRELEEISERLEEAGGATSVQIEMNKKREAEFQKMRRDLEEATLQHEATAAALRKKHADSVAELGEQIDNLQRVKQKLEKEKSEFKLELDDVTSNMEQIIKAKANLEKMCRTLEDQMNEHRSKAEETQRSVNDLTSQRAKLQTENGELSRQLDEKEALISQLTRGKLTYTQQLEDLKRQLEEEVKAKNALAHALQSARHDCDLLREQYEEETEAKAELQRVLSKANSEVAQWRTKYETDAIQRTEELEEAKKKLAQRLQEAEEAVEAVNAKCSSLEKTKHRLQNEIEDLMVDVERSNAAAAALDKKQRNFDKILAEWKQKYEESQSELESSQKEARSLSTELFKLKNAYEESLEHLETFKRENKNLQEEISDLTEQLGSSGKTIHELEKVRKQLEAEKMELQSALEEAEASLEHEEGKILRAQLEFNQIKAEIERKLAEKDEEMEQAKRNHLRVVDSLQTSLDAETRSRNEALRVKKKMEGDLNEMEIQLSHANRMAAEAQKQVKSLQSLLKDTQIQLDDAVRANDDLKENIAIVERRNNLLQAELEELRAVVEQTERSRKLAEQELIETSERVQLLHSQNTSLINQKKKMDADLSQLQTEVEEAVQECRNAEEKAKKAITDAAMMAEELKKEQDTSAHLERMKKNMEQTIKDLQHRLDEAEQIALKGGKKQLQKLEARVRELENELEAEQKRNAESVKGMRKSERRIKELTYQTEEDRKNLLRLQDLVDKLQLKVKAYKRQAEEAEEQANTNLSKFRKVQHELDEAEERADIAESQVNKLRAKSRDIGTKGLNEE
Chain of cardiac myosin (P08590 whole entry partner): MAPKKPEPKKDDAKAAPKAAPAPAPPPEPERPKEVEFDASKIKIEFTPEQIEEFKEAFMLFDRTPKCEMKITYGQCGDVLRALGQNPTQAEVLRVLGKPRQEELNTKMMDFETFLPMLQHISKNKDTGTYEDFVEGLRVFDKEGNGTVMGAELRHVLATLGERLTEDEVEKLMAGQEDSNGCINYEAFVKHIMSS
Chain of cardiac myosin (P10916 whole entry partner): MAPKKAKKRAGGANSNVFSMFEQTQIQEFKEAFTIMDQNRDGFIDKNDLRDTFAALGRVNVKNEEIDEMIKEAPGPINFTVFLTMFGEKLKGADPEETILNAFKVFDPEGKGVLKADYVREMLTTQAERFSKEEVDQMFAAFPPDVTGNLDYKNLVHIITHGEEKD

Compound: CCc1nc(-c2ccc3c(c2)CC[C@H]3NC(=O)c2cnn(C)c2)no1 [aficamten, (R)—N-(5-(5-ethyl-1,2,4-oxadiazol-3-yl)-2,3-dihydro-1H-inden-1-yl)-1-methyl-1H-pyrazole-4-carboxamide]
- effect on left ventricular contractility (cardiac myosin): reduced measures of left ventricular contractility
- impact of food and CYP2D6-PM phenotype on pharmacokinetics ([1]; 10 mg single dose): Neither food nor CYP2D6-PM phenotype had a clinically meaningful impact on pharmacokinetics
- steady state achieved by the end of day ([1]; 5-mg and 7.5-mg doses once daily): 12 days
- steady state achieved by the end of day ([1]; 10-mg dose once daily): 10 days
- CL/F ([1]; CYP2D6 Poor Metabolizers, 10 mg single dose): 3.6 ± 1.4 L/h
- maximum time to maximum observed concentration across all participants ([1]; SAD cohorts): 4.0 h
- increase of Cmax when taken with food ([1]; food-effect cohort, 10 mg): approximately 30%
- CL/F ([1]; food-effect cohort, 10 mg, Fasted (n = 4)): 2.8 ± 0.6 L/h
- CL/F ([1]; food-effect cohort, 10 mg, Fed (n = 7)): 3.1 ± 0.9 L/h
- time within which steady state is achieved ([1]; once-daily dosing): ≤ 2 weeks
- CL/F ([1]; single oral dose 3 mg): 4.2 ± 3.1 L/h
- CL/F ([1]; single oral dose 10 mg): 3.0 ± 0.7 L/h
- CL/F ([1]; single oral dose 25 mg): 3.6 ± 0.5 L/h
- CL/F ([1]; single oral dose 40 mg): 3.4 ± 0.6 L/h
- CL/F ([1]; single oral dose 50 mg): 3.8 ± 1.1 L/h
- dose proportionality of plasma concentrations / exposure ([1]; single oral doses 1 mg to 50 mg): increased in a dose-proportional manner; also recorded: linear kinetics
